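Method: 48-hour compound exposure of cells in 96-well plates, five concentrations, linear interpolation of endpoints. TGI marks complete inhibition of growth.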
What was measured:
Assay in all cases: growth of human tumour cells (NCI), 48 h
MDA-MB-435 = tested on: MDA-MB-435
HS 578T breast = tested on: HS 578T breast
MCF7 breast = tested on: MCF7 breast
SNB-75 CNS = tested on: SNB-75 CNS
BT-549 breast = tested on: BT-549 breast

**Q.** Which results are given for `Cc1cc(S(N)(=O)=O)c(S/C(=N\Nc2ccc([N+](=O)[O-])cc2)c2ccc(Cl)cc2)cc1Cl`?
**A.** TGI (MDA-MB-435): 6.88 µM; TGI (HS 578T breast): > 100 µM; TGI (MCF7 breast): 4.59 µM; TGI (SNB-75 CNS): 4.01 µM; TGI (BT-549 breast): 35.4 µM

From PubChem BioAssay (NCI)
